Measurements taken from patent publication US10167262B2, “Herbicidal substituted 3-arylpyrazoles” (FMC CORPORATION, priority 2014, dated 2019).
Read-outs that look alike come from different tables or passages of the source.

Legend:
Assay type in all cases: in vivo
[1] = tested on: barnyardgrass (Echinochloa crus-galli); experiment: Test A pre-/postemergence greenhouse herbicide test, visual injury rating 0-100; settings: for pest or weed control at 500 g/ha: 500 g ai/ha
Outline: (§1)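 Visual injury versus untreated controls, scored about 10 days after treatment on a 0 to 100 scale (0 = no effect, 100 = complete control). Applications were preemergence directed soil spray plus postemergence spray at one- to two-leaf stage, 2 to 10 cm plants.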

corn (Zea mays) = experiment: as above; settings: for plant injury at 500 g/ha: 500 g ai/ha
Outline: as §1

[2] = tested on: giant foxtail (Setaria faberii); experiment: as above; settings: for pest or weed control at 500 g/ha: 500 g ai/ha
Outline: as §1

[3] = tested on: large (Lg) crabgrass (Digitaria sanguinalis); experiment: as above; settings: for pest or weed control at 500 g/ha: 500 g ai/ha
Outline: as §1

[4] = tested on: morningglory (Ipomoea spp.); experiment: as above; settings: for pest or weed control at 500 g/ha: 500 g ai/ha
Outline: as §1

[5] = tested on: pigweed (Amaranthus retroflexus); experiment: as above; settings: for pest or weed control at 500 g/ha: 500 g ai/ha
Outline: as §1

[6] = tested on: velvetleaf (Abutilon theophrasti); experiment: as above; settings: for pest or weed control at 500 g/ha: 500 g ai/ha
Outline: as §1

[7] = tested on: wheat (Triticum aestivum); experiment: as above; settings: for plant injury at 500 g/ha: 500 g ai/ha
Outline: as §1

[8] = tested on: blackgrass (Alopecurus myosuroides); experiment: Test C pre-/postemergence greenhouse test, plant response rating 0-100; settings: Alopecurus myosuroides; for pest or weed control at 62 g/ha: 62 g ai/ha; for pest or weed control at 125 g/ha: 125 g ai/ha; for pest or weed control at 250 g/ha: 250 g ai/ha; for pest or weed control at 500 g/ha: 500 g ai/ha
Outline: (§2)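 Pre-emergence soil and post-emergence foliar sprays were applied simultaneously to seeded loam–sand pots and to 1–4-leaf plants in peat medium; greenhouse holding lasted 13–15 days, then plants were scored visually from 0 (no effect) to 100 (complete control).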

[9] = tested on: ragweed (common ragweed, Ambrosia elatior); experiment: as above; settings: Ambrosia artemisiifolia; for pest or weed control at 62 g/ha: 62 g ai/ha; for pest or weed control at 125 g/ha: 125 g ai/ha; for pest or weed control at 250 g/ha: 250 g ai/ha; for pest or weed control at 500 g/ha: 500 g ai/ha
Outline: as §2

[10] = tested on: chickweed (common chickweed, Stellaria media); experiment: Test C postemergence greenhouse test, plant response rating 0-100; settings: Stellaria media, post-emergence
Outline: (§3)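 Plants rated visually 0 (no effect) to 100 (complete control) against untreated controls after 13 to 15 days in the greenhouse, dash indicating no result. Treatment was a postemergence application of formulated chemicals at the 1- to 4-leaf stage (2 to 18 cm), in pots of peat-vermiculite medium.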

kochia (Kochia scoparia) = experiment: as above; settings: Bassia scoparia, post-emergence
Outline: as §3

wild oat (Avena fatua) = experiment: as above; settings: Avena fatua, post-emergence
Outline: as §3

[11] = post-emergence, Postemergence, scale 0 to 100
[12] = pre-emergence, Preemergence, read-out: Plant response rating, Blackgrass
[13] = post-emergence, Postemergence, read-out: Plant response rating (0 to 100), Ragweed
[14] = pre-emergence, Preemergence, read-out: Plant response rating, Ragweed

COCC(=O)n1cc(C(=O)c2ccccc2)c(-c2cc(Cl)cc(Cl)c2)n1 [Compound 16, 1-[4-benzoyl-3-(3,5-dichlorophenyl)-1H-pyrazol-1-yl]-2-methoxyethanone]
95%: pest or weed control at 500 g/ha [9, 11] | pest or weed control at 500 g/ha ([9]; pre-emergence, Preemergence) | pest or weed control at 62 g/ha ([10]; 62 g ai/ha)
60: Pigweed plant response rating (0 = no effect, 100 = complete control) ([5]; Preemergence, 125 g ai/ha)
0: Barnyardgrass plant response rating (0 = no effect, 100 = complete control) ([1]; Preemergence, 125 g ai/ha) | Corn plant response rating (0 = no effect, 100 = complete control) (corn (Zea mays); Preemergence, 125 g ai/ha) | Foxtail, Giant plant response rating (0 = no effect, 100 = complete control) ([2]; Preemergence, 125 g ai/ha) | Crabgrass, Large plant response rating (0 = no effect, 100 = complete control) ([3]; Preemergence, 125 g ai/ha) | Morningglory plant response rating (0 = no effect, 100 = complete control) ([4]; Preemergence, 125 g ai/ha) | Wheat plant response rating (0 = no effect, 100 = complete control) ([7]; Preemergence, 125 g ai/ha)
80%: pest or weed control at 125 g/ha ([5]; Amaranthus retroflexus, post-emergence, 240 h, Postemergence, 125 g ai/ha, read-out: Plant response rating (0 to 100 scale), Pigweed) | pest or weed control at 125 g/ha ([6]; Abutilon theophrasti, post-emergence, 240 h, Postemergence, 125 g ai/ha, read-out: Plant response rating (0 to 100 scale), Velvetleaf) | pest or weed control at 500 g/ha ([6]; Abutilon theophrasti, pre-emergence, 240 h, Preemergence, read-out: Plant response rating (0 to 100 scale), Velvetleaf) | pest or weed control at 62 g/ha (kochia (Kochia scoparia); 62 g ai/ha)
0%: pest or weed control at 125 g/ha ([1]; Echinochloa crus-galli, post-emergence, 240 h, Postemergence, 125 g ai/ha, read-out: Plant response rating (0 to 100 scale), Barnyardgrass) | pest or weed control at 500 g/ha ([1]; Echinochloa crus-galli, post-emergence, 240 h, Postemergence, read-out: Plant response rating (0 to 100 scale), Barnyardgrass) | pest or weed control at 500 g/ha ([1]; Echinochloa crus-galli, pre-emergence, 240 h, Preemergence, read-out: Plant response rating (0 to 100 scale), Barnyardgrass) | plant injury at 125 g/ha (corn (Zea mays); Zea mays, post-emergence, 240 h, Postemergence, 125 g ai/ha, read-out: Plant response rating (0 to 100 scale), Corn) | plant injury at 500 g/ha (corn (Zea mays); Zea mays, post-emergence, 240 h, Postemergence, read-out: Plant response rating (0 to 100 scale), Corn) | plant injury at 500 g/ha (corn (Zea mays); Zea mays, pre-emergence, 240 h, Preemergence, read-out: Plant response rating (0 to 100 scale), Corn) | pest or weed control at 125 g/ha ([2]; Setaria faberi, post-emergence, 240 h, Postemergence, 125 g ai/ha, read-out: Plant response rating (0 to 100 scale), Foxtail, Giant) | pest or weed control at 500 g/ha ([2]; Setaria faberi, post-emergence, 240 h, Postemergence, read-out: Plant response rating (0 to 100 scale), Foxtail, Giant) | pest or weed control at 500 g/ha ([2]; Setaria faberi, pre-emergence, 240 h, Preemergence, read-out: Plant response rating (0 to 100 scale), Foxtail, Giant) | pest or weed control at 125 g/ha ([3]; Digitaria sanguinalis, post-emergence, 240 h, Postemergence, 125 g ai/ha, read-out: Plant response rating (0 to 100 scale), Crabgrass, Large) | pest or weed control at 500 g/ha ([3]; Digitaria sanguinalis, post-emergence, 240 h, Postemergence, read-out: Plant response rating (0 to 100 scale), Crabgrass, Large) | pest or weed control at 500 g/ha ([3]; Digitaria sanguinalis, pre-emergence, 240 h, Preemergence, read-out: Plant response rating (0 to 100 scale), Crabgrass, Large) | pest or weed control at 125 g/ha ([4]; Ipomoea, post-emergence, 240 h, Postemergence, 125 g ai/ha, read-out: Plant response rating (0 to 100 scale), Morningglory) | pest or weed control at 500 g/ha ([4]; Ipomoea, post-emergence, 240 h, Postemergence, read-out: Plant response rating (0 to 100 scale), Morningglory) | pest or weed control at 500 g/ha ([4]; Ipomoea, pre-emergence, 240 h, Preemergence, read-out: Plant response rating (0 to 100 scale), Morningglory) | plant injury at 125 g/ha ([7]; Triticum aestivum, post-emergence, 240 h, Postemergence, 125 g ai/ha, read-out: Plant response rating (0 to 100 scale), Wheat) | plant injury at 500 g/ha ([7]; Triticum aestivum, post-emergence, 240 h, Postemergence, read-out: Plant response rating (0 to 100 scale), Wheat) | plant injury at 500 g/ha ([7]; Triticum aestivum, pre-emergence, 240 h, Preemergence, read-out: Plant response rating (0 to 100 scale), Wheat) | pest or weed control at 62 g/ha ([8]; post-emergence, Postemergence, read-out: Plant response rating (0 to 100), Blackgrass) | pest or weed control at 125 g/ha ([8]; post-emergence, Postemergence, scale 0 to 100, read-out: Plant response rating, Blackgrass) | pest or weed control at 250 g/ha [8, 11] | pest or weed control at 500 g/ha [8, 11] | pest or weed control at 62 g/ha [8, 12] | pest or weed control at 125 g/ha [8, 12] | pest or weed control at 250 g/ha ([8]; pre-emergence, Preemergence) | pest or weed control at 500 g/ha ([8]; pre-emergence, Preemergence) | pest or weed control at 62 g/ha (wild oat (Avena fatua); 62 g ai/ha) | pest or weed control at 125 g/ha (wild oat (Avena fatua); 125 g ai/ha) | pest or weed control at 250 g/ha (wild oat (Avena fatua); 250 g ai/ha, scale 0 to 100) | pest or weed control at 500 g/ha (wild oat (Avena fatua); 500 g ai/ha, scale 0 to 100)
90%: pest or weed control at 500 g/ha ([6]; Abutilon theophrasti, post-emergence, 240 h, Postemergence, read-out: Plant response rating (0 to 100 scale), Velvetleaf) | pest or weed control at 250 g/ha (kochia (Kochia scoparia); 250 g ai/ha, scale 0 to 100) | pest or weed control at 500 g/ha (kochia (Kochia scoparia); 500 g ai/ha, scale 0 to 100)
85%: pest or weed control at 125 g/ha [9, 13] | pest or weed control at 250 g/ha [9, 11] | pest or weed control at 125 g/ha [9, 14] | pest or weed control at 250 g/ha ([9]; pre-emergence, Preemergence) | pest or weed control at 125 g/ha (kochia (Kochia scoparia); 125 g ai/ha)
20: Velvetleaf plant response rating (0 = no effect, 100 = complete control) ([6]; Preemergence, 125 g ai/ha)
55%: pest or weed control at 62 g/ha [9, 14]
60%: pest or weed control at 62 g/ha [9, 13]
100%: pest or weed control at 500 g/ha ([5]; Amaranthus retroflexus, post-emergence, 240 h, Postemergence, read-out: Plant response rating (0 to 100 scale), Pigweed) | pest or weed control at 500 g/ha ([5]; Amaranthus retroflexus, pre-emergence, 240 h, Preemergence, read-out: Plant response rating (0 to 100 scale), Pigweed) | pest or weed control at 125 g/ha ([10]; 125 g ai/ha) | pest or weed control at 250 g/ha ([10]; 250 g ai/ha, scale 0 to 100) | pest or weed control at 500 g/ha ([10]; 500 g ai/ha, scale 0 to 100)
